The text below walks through data of patent US20170095578A1, “CT SCANS USING GADOLINIUM-BASED CONTRAST AGENT” (UNIVERSITY OF MASSACHUSETTS MEDICAL SCHOOL, priority 2014, published 2017).

A short description of test [1]: gadoxetate disodium-enhanced CT scan of a human patient. Type of test: in vivo. The procedure: (§1) A patient was undergoing evaluation for living liver donation.
FIG. 7A is an enhanced CT scan image of their liver using gadoxetate disodium as a contract agent according to principles of the invention. […] In this particular patient the CT scan was obtained 99 minutes after the gadoxetate disodium-enhanced MRI shown in FIG. 7B, a relatively long interval to image gallbladder filling. A better contrast resolution is expected when using shorter interval. The highest concentration of contrast within the gallbladder, and therefore the best contrast resolution, is expected between 30 to 60 minutes from the time of intravenous injection of contrast.
The CT scan technique used included a slice thickness of 4.00 mm, and a field of view of 283.0 mm. The x-ray radiation was generated using 120 kV and a current of 182 mA, with a tube current of 182 mA and tube current-time product of 213 mAs.

The nature of test [2]: gadoxetate disodium-enhanced MRI of the same patient. Type of test: in vivo, human. The following applies: MRI 20 minutes following intravenous administration. On the procedure: as §1
FIG. 7B is a gadoxetate disodium-enhanced MRI image of the same patient. […] The MRI of FIG. 7B was obtained 20 minutes following intravenous administration of gadoxetate disodium.

As for `CCOc1ccc(CC(CN(CCN(CC(=O)[O-])CC(=O)[O-])CC(=O)[O-])N(CC(=O)[O-])CC(=O)[O-])cc1.[Gd+3].[Na+].[Na+]` (stereo not drawn) [gadoxetate disodium, Gadoxetate disodium], the “gallbladder opacification under CT imaging conditions” value in test [1] (following intravenous injection) is reported as “clearly demonstrates gallbladder opacification”. The “visualization of excreted hepatobiliary contrast in the gallbladder on CT” value in test [1] (patient, arterial phase CT at 120 kV, 182 mA, 99 minutes after the gadoxetate disodium-enhanced MRI) is listed as “anti-dependant hyperdensity within the gallbladder fundus”. In addition, the “visualization of excreted contrast in the gallbladder on MRI” value in test [2] was “excreted contrast within the gallbladder lumen”.
